Data on 42 compounds can be found in patent publication US7138411B2, “Substituted benzopyran derivatives for the treatment of inflammation” (G.D. Searle & Co., priority 1997, dated 2006).

Each structure is given as a SMILES string. Counter-ions that a name gives are not always drawn.

A word on the melting point: it is the temperature, or range, at which the solid turns liquid. The compound `O=C(O)C1=Cc2cc(Cl)c(Oc3ccc(C(=O)O)cc3)cc2OC1C(F)(F)F` (stereo not drawn) (as salt: potassium) [Example 206, 7-(4-Carboxyphenoxy)-6-chloro-2-(trifluoromethyl)-2H-1-benzopyran-3-carboxylic acid] yielded a melting point above 300 °C.

`O=C(O)C1=Cc2cc(Cl)c(Oc3ccc(C(=O)O)cc3Cl)cc2OC1C(F)(F)F` (stereo not drawn) (as salt: potassium) [Example 207, 7-(4-Carboxy-2-chloro-phenoxy)-6-chloro-2-(trifluoromethyl)-2H-1-benzopyran-3-carboxylic acid] gave a melting point above 300 °C. On to `O=C(O)C1=Cc2cc(Cl)c(Oc3cccc(C(=O)O)c3)cc2OC1C(F)(F)F` (stereo not drawn) (as salt: potassium) [Example 208, 7-(3-Carboxyphenoxy)-6-chloro-2-(trifluoromethyl)-2H-1-benzopyran-3-carboxylic acid], for which the melting point is 288.1 to 289.2 °C.

`Cc1ccc2c(c1)OC(C(F)(F)F)C(C(=O)O)=C2` (stereo not drawn) [Example 3, 7-Methyl-2-trifluoromethyl-2H-1-benzopyran-3-carboxylic acid] displayed a melting point of 202.1 to 203.1 °C. `O=C(O)C1=Cc2ccc(C(F)(F)F)cc2OC1C(F)(F)F` (stereo not drawn) [Example 4, 2,7-bis(Trifluoromethyl)-2H-1-benzopyran-3-carboxylic acid] had a melting point of 190.3 to 193.5 °C. In the case of `O=C(O)C1=Cc2ccc(Br)cc2OC1C(F)(F)F` (stereo not drawn) [Example 5, 7-Bromo-2-trifluoromethyl-2H-1-benzopyran-3-carboxylic acid] it was 198.4 to 199.5 °C; in that of `O=C(O)C1=Cc2ccccc2OC1C(F)(F)F` (stereo not drawn) [Example 10, 2-Trifluoromethyl-2H-1-benzopyran-3-carboxylic acid], 152.2 to 153.3 °C; in that of `O=C(O)C1=Cc2cccc(F)c2OC1C(F)(F)F` (stereo not drawn) [Example 17, 8-Fluoro-2-trifluoromethyl-2H-1-benzopyran-3-carboxylic acid], 197.7 to 210.1 °C. In turn, `O=C(O)C1=Cc2ccc(Cl)c(Cl)c2OC1C(F)(F)F` (stereo not drawn) [Example 19, 7,8-Dichloro-2-trifluoromethyl-2H-1-benzopyran-3-carboxylic acid] returned a melting point of 219.5 to 220.9 °C.

Take `CC(C)Oc1ccc2c(c1)OC(C(F)(F)F)C(C(=O)O)=C2` (stereo not drawn) [Example 20, 7-Isopropyloxy-2-trifluoromethyl-2H-1-benzopyran-3-carboxylic acid]: the melting point was in the range of 161 to 163 °C. `CCc1cccc2c1OC(C(F)(F)F)C(C(=O)O)=C2` (stereo not drawn) [Example 28, 8-Ethyl-2-trifluoromethyl-2H-1-benzopyran-3-carboxylic acid] came in with a melting point of 185.4 to 186.8 °C. `Nc1ccc2c(c1)C=C(C(=O)O)C(C(F)(F)F)O2` (stereo not drawn) [Example 36, 6-Amino-2-trifluoromethyl-2H-1-benzopyran-3-carboxylic acid] registered a melting point of 126 to 133 °C. The compound `O=C(O)C1=Cc2cc([N+](=O)[O-])ccc2OC1C(F)(F)F` (stereo not drawn) [Example 37, 6-Nitro-2-trifluoromethyl-2H-1-benzopyran-3-carboxylic acid] displayed a melting point of 187 to 189 °C. In the case of `O=C(O)C1=Cc2cc(F)cc(F)c2OC1C(F)(F)F` (stereo not drawn) [Example 41, 6,8-Difluoro-2-trifluoromethyl-2H-1-benzopyran-3-carboxylic acid] it was 207 to 211 °C. In the case of `CCN(CC)c1ccc2c(c1)OC(C(F)(F)F)C(C(=O)O)=C2` (stereo not drawn) [Example 48, 7-(N,N-Diethylamino)-2-trifluoromethyl-2H-1-benzopyran-3-carboxylic acid], the melting point lay within 214.4 to 215.4 °C. For `NS(=O)(=O)c1ccc2c(c1)C=C(C(=O)O)C(C(F)(F)F)O2` (stereo not drawn) [Example 51, 6-Aminosulfonyl-2-trifluoromethyl-2H-1-benzopyran-3-carboxylic acid], the melting point lay in the range of 187.9 to 189.8 °C. Under `CCN(CC)S(=O)(=O)c1ccc2c(c1)C=C(C(=O)O)C(C(F)(F)F)O2` (stereo not drawn) [Example 58, 6-N,N-Diethylaminosulfonyl-2-trifluoromethyl-2H-1-benzopyran-3-carboxylic acid] stands 238 to 240 °C; under `CC(C)(C)CC(=O)c1ccc2c(c1)C=C(C(=O)O)C(C(F)(F)F)O2` (stereo not drawn) [Example 60, 6-(2,2-Dimethylpropylcarbonyl)-2-trifluoromethyl-2H-1-benzopyran-3-carboxylic acid], 198 to 200 °C. In the case of `COc1c(Cl)cc2c(c1Cl)OC(C(F)(F)F)C(C(=O)O)=C2` (stereo not drawn) [Example 61, 6,8-Dichloro-7-methoxy-2-trifluoromethyl-2H-1-benzopyran-3-carboxylic acid] it was 195.6 to 199.1 °C; in that of `O=C(O)C1=Cc2ccc3ccccc3c2OC1C(F)(F)F` (stereo not drawn) [Example 62, 2-Trifluoromethyl-2H-naphtho[1,2-b]pyran-3-carboxylic acid], 245.9 to 248.6 °C. In the case of `O=C(O)C1=Cc2cc(S(=O)(=O)NCc3ccco3)ccc2OC1C(F)(F)F` (stereo not drawn) [Example 69, 6-[[(2-Furanylmethyl)amino]sulfonyl]-2-(trifluoromethyl)-2H-1-benzopyran-3-carboxylic acid] it was 170 to 173 °C. `O=C(O)C1=Cc2cc(S(=O)(=O)Cc3ccccc3)ccc2OC1C(F)(F)F` (stereo not drawn) [Example 70, 6-[(Phenylmethyl)sulfonyl]-2-(trifluoromethyl)-2H-1-benzopyran-3-carboxylic acid] registered a melting point of 172 to 176 °C. In the case of `O=C(O)C1=Cc2cc(S(=O)(=O)NCCc3ccccc3)ccc2OC1C(F)(F)F` (stereo not drawn) [Example 71, 6-[[(Phenylethyl)amino]sulfonyl]-2-(trifluoromethyl)-2H-1-benzopyran-3-carboxylic acid] it was 187 to 190 °C; in that of `O=C(O)C1=Cc2ccc(Cl)cc2OC1C(F)(F)F` (stereo not drawn) [Example 72, 7-Chloro-2-trifluoromethyl-2H-1-benzopyran-3-carboxylic acid], 175.2 to 177.6 °C. Regarding `O=C(O)C1=Cc2cc(Cl)cc(I)c2OC1C(F)(F)F` (stereo not drawn) [Example 73, 6-Chloro-8-iodo-2-(trifluoramethyl)-2H-1-benzopyran-3-carboxylic acid], the melting point lay in the range of 220 to 223 °C. The compound `O=Cc1cc(Cl)cc2c1OC(C(F)(F)F)C(C(=O)O)=C2` (stereo not drawn) [Example 76, 6-Chloro-8-Formyl-2-(trifluoromethyl)-2H-1-benzopyran-3-carboxylic acid] showed a melting point of 243.3 to 252.4 °C. Under `CC(C)(C)c1cc2c(cc1Br)C=C(C(=O)O)C(C(F)(F)F)O2` (stereo not drawn) [Example 77, 6-Bromo-7-(1,1-dimethylethyl)-2-(trifluoromethyl)-2H-1-benzopyran-3-carboxylic acid] stands 198.6 to 199.9 °C; under `O=C(O)C1=Cc2cc(CO)ccc2OC1C(F)(F)F` (stereo not drawn) [Example 80, 6-Hydroxymethyl-2-(trifluoromethyl)-2H-1-benzopyran-3-carboxylic acid], 177.5 to 180.8 °C. The compound `CCc1ccc2c(c1)OC(C(F)(F)F)C(C(=O)O)=C2` (stereo not drawn) [Example 85, 7-Ethyl-2-trifluoromethyl-2H-1-benzopyran-3-carboxylic acid] registered a melting point of 167 to 168.6 °C. `C[S+]([O-])c1ccc2c(c1)C=C(C(=O)O)C(C(F)(F)F)O2` (stereo not drawn) [Example 86, 6-(Methylsulfinyl)-2-(trifluoromethyl)-2H-1-benzopyran-3-carboxylic acid] returned a melting point of 148.3 to 151 °C.

Turning to `O=C(O)C1=Cc2c(Cl)ccc(Cl)c2OC1C(F)(F)F` (stereo not drawn) [Example 87, 5,8-Dichloro-2-(trifluoromethyl)-2H-1-benzopyran-3-carboxylic acid], the melting point lay in the range of 205.7 to 207.1 °C.

`CC(C)(C)c1ccc2c(c1)C=C(C(=O)O)C(C(F)(F)F)O2` (stereo not drawn) [Example 89, 6-(1,1-Dimethylethyl)-2-(trifluoromethyl)-2H-1-benzopyran-3-carboxylic acid] gave a melting point of 170.6 to 173.2 °C.

Consider `Cc1ncc(CO)c2c1OC(C(F)(F)F)C(C(=O)O)=C2` (stereo not drawn) [Example 90, 5-(Hydroxymethyl)-8-methyl-2-(trifluoromethyl)-2H-pyrano[2,3-c]pyridine-3-carboxylic acid], for which the melting point lay in the range of 76.1 to 80.1 °C. `O=C(O)C1=Cc2cc3c(cc2OC1C(F)(F)F)OCO3` (stereo not drawn) [Example 92, 6-(Trifluoromethyl)-6H-1,3-dioxolo[4,5-g][1]benzopyran-7-carboxylic acid] yielded a melting point of 245.8 to 247.8 °C.

Compound `CCOc1cccc2c1OC(C(F)(F)F)C(C(=O)O)=C2` (stereo not drawn) [Example 93, 8-Ethoxy-2-trifluoromethyl-2H-1-benzopyran-3-carboxylic acid] came in with a melting point of 159.4 to 160.9 °C. In the case of `O=C(O)C1=Cc2cc(Cl)c(C(F)(F)F)cc2OC1C(F)(F)F` (stereo not drawn) [Example 94, 6-Chloro-2,7-bis(trifluoromethyl)-2H-1-benzopyran-3-carboxylic acid] it was 180.9 to 182.4 °C; in that of `COc1cccc2c1C=C(C(=O)O)C(C(F)(F)F)O2` (stereo not drawn) [Example 95, 5-Methoxy-2-(trifluoromethyl)-2H-1-benzopyran-3-carboxylic acid], 204.5 to 206.7 °C; in that of `O=C(O)C1=Cc2cc(Oc3ccc(Cl)cc3)cc(Cl)c2OC1C(F)(F)F` (stereo not drawn) [Example 100], 227.8 to 228.9 °C. In the case of `CC(C)c1cccc2c1OC(C(F)(F)F)C(C(=O)O)=C2` (stereo not drawn) [Example 102, 8-(1-Methylethyl)-2-trifluoromethyl-2H-1-benzopyran-3-carboxylic acid], the melting point lay within 210.5 to 211.5 °C. Take `N#Cc1cc(Cl)cc2c1OC(C(F)(F)F)C(C(=O)O)=C2` (stereo not drawn) [Example 107, 6-Chloro-8-cyano-2-(trifluoromethyl)-2H-1-benzopyran-3-carboxylic acid]: the melting point was in the range of 238.1 to 239.7 °C. In turn, `O=C(O)C1=Cc2cc(Cl)cc(/C=N/O)c2OC1C(F)(F)F` (stereo not drawn) [Example 108, 6-Chloro-8-[(hydroxyimino)methyl]-2-(trifluoromethyl)-2H-1-benzopyran-3-carboxylic acid] showed a melting point of 246.9 to 247.9 °C.

Compound `O=C(O)C1=Cc2cc(Cl)cc(CO)c2OC1C(F)(F)F` (stereo not drawn) [Example 109, 6-Chloro-8-(hydroxymethyl)-2-(trifluoramethyl)-2H-1-benzopyran-3-carboxylic acid] came in with a melting point of 174.6 to 178.9 °C.
